Measurements: patent US20230212571A1, “COMPOSITIONS AND METHODS FOR DELIVERING POLYNUCLEOTIDES” (NeOnc Technologies, Inc., priority 2020, published 2023)

Key:
Type in all cases: cell-based, human
[1] = system: BEC; assay: Western blot of control BEC lysates; conditions: untreated vs scramble vs miR-18a
Excerpt: Human surgical specimens were obtained following written informed consent from patients in accordance with Declaration of Helsinki guidelines and the Institutional Review Board (HS-04B053), at Keck School of Medicine, USC. AVM-BECs were isolated from brain tissues of patients who underwent microsurgical AVM resection. Control BECs were isolated from the structurally normal […] of patients who underwent temporal lobectomy for intractable epilepsy. Endothelial cell (EC) isolation and culture were described^5,9. (Stapleton C J, Armstrong D L, Zidovetzki R, Liu C Y, Giannotta S L, Hofman F M. Thrombospondin-1 modulates the angiogenic phenotype of human cerebral arteriovenous malformation endothelial cells. Neurosurgery. 2011; 68(5):1342-1353) (Ferreira R, Santos T, Amar A, et al. Argonaute-2 promotes miR-18a entry in human brain endothelial cells. J Am Heart Assoc. 2014; 3(3):e000968) ECs were only used between passages 3-5. Experiments were performed under shear flow conditions (12 dyn/cm^2) to reproduce arterial flow^6. […]
The levels of angiogenesis-related proteins were analyzed using the Proteome Profiler™ Human Angiogenesis Array kit (R&D Systems) following the manufacturer's instructions. […] Membranes were visualized and quantified using a C-Digit Blot scanner (Li-Cor) or a iBright CL1000 (Thermo Fisher Scientific).

[2] = system: AVM-BEC; assay: ELISA of AVM-BEC supernatants
Excerpt: (§1) Human surgical specimens were obtained following written informed consent from patients in accordance with Declaration of Helsinki guidelines and the Institutional Review Board (HS-04B053), at Keck School of Medicine, USC. AVM-BECs were isolated from brain tissues of patients who underwent microsurgical AVM resection. Control BECs were isolated from the structurally normal […] of patients who underwent temporal lobectomy for intractable epilepsy. Endothelial cell (EC) isolation and culture were described^5,9. (Stapleton C J, Armstrong D L, Zidovetzki R, Liu C Y, Giannotta S L, Hofman F M. Thrombospondin-1 modulates the angiogenic phenotype of human cerebral arteriovenous malformation endothelial cells. Neurosurgery. 2011; 68(5):1342-1353) (Ferreira R, Santos T, Amar A, et al. Argonaute-2 promotes miR-18a entry in human brain endothelial cells. J Am Heart Assoc. 2014; 3(3):e000968) ECs were only used between passages 3-5. Experiments were performed under shear flow conditions (12 dyn/cm^2) to reproduce arterial flow^6. (Ferreira R, Santos T, Amar A, et al. MicroRNA-18a improves human cerebral arteriovenous malformation endothelial cell function. Stroke. 2014; 45(1):293-297). For hypoxic experiments, cells were cultured in a Galaxy 48R (Eppendorf) incubator at 3% O2. MicroRNAs were co-administered with Ago-2 to increase the cellular uptake of miR-18a^9 (Ferreira R, Santos T, Amar A, et al. Argonaute-2 promotes miR-18a entry in human brain endothelial cells. J Am Heart Assoc. 2014; 3(3):e000968) (FIG. 9). Methods regarding cell treatments and transfections were included in Data.
(§2) Small interfering RNA transfection was performed as previously described^5. Briefly, ECs were transfected with small interfering RNA (siRNA) against ID1 or PAI-1 (Thermo Fisher Scientific), or small interfering control (Santa Cruz Biotechnology) constructs using Lipofectamine RNAiMax (Thermo Fisher Scientific) per the manufacturer's instructions. Knockdown of ID1 or PAI-1 was confirmed by quantitative real-time polymerase chain reaction as described^6 (FIG. 19). The sequences of the forward and reverse primers for ID1 and PAI-1 were included in Table 2.
(§3) Plasmid constructs pcDNA3-ALK2^WT (Addgene #80870) and pcDNA3-ALK2^Q207D (Addgene #80871) were a gift from Aristidis Moustakas^7. (Meyer B, Schaller C, Frenkel C, Ebeling B, Schramm J. Distributions of local oxygen saturation and its response to changes of mean arterial blood pressure in the cerebral cortex adjacent to arteriovenous malformations. Stroke. 1999; 30(12):2623-2630) 10^4 AVM-BEC were seeded 24 h before transfection. The plasmid vector containing the 3′ untranslated region (3′UTR) of human BMP4, pRP [Exp]-Puro-CMV>Luciferase:{hBMP4_3′UTR}, was constructed and packaged by VectorBuilder. The vector ID is VB200205-1078zdv, which can be used to retrieve detailed information about the vector on vectorbuilder.com. Transient transfections were performed with Lipofectamine RNAiMax (Thermo Fisher Scientific) according to the manufacturer's instructions. After 4 h, medium was replaced by fresh medium containing microRNA.
(§4) MiR-18a (hsa-miR-18a-5p, 40 nM, Dharmacon) or a scramble microRNA (40 nM, Dharmacon) in nuclease-free water was added with argonaute 2 (Ago-2, 0.4 nM, Abcam) as the microRNA carrier and stabilizer^9. (Ferreira R, Santos T, Amar A, et al. Argonaute-2 promotes miR-18a entry in human brain endothelial cells. J Am Heart Assoc. 2014; 3(3):e000968). No transfection reagent was used with miR-18a or scramble microRNA treatments. Recombinant human TSP-1 (R&D Systems) stock solution was prepared in PBS and further diluted in culture medium to be used at a final concentration of 1000 ng/mL. Cells were treated during 24 h for mRNA and 48 h for protein expression studies. NEO100 (NeOnc Technologies) stock was prepared in DMSO and used immediately or stored at −20° C. […]

[3] = system: BEC; assay: ELISA of control BEC supernatants
Excerpt: as §1, §2, §3, §4

[4] = system: BMP4 3′UTR; assay: BMP4 3′UTR luciferase reporter in ECs; conditions: vs untreated or scramble microRNA, n=6
Procedure: as §3
For the experiments regarding the direct binding of miR-18a to BMP4 (information about the plasmid was included in Methods), the luciferase activity of the hBMP4 3′UTR was read in a Varioskan™ LUX multimode microplate reader (Thermo Fisher Scientific).

[5] = system: BEC; assay: Invasion assay, Matrigel-coated Boyden chamber, control BEC; conditions: P>0.9999
Excerpt: The chemoinvasion assay was described^14. (Marín-Ramos N I, Thein T Z, Cho H-Y, et al. NEO212 inhibits migration and invasion of glioma stem cells. Mol Cancer Ther. 2018; 17(3):625-637). Pictures were captured using an Eclipse 80i microscope (Nikon), and cells counted with ImageJ Software (NIH).

[6] = control BEC supernatants, normoxia

## hsa-miR-18a-5p (UAGGUGCAUCUAGUGCAGAUAG; chemistry not given here; listed as Homo sapiens) [small non-coding RNA molecule involved in post-transcriptional regulation of gene expression; Dharmacon]
[1]
  levels of bFGF, ET-1, PAI-1 and VEGF (western blot): remained unaltered
[2]; ALK2^WT-transfected AVM-BEC, P=0.0030
  VEGF levels (ELISA): decrease VEGF levels
[2]; AVM-BEC supernatants, P>0.9999
  levels of secreted TGF-β (ELISA): not significantly changed
[2]; AVM-BEC supernatants, normoxia, vs scramble microRNA
  levels of secreted PAI-1: decreased
[2]; AVM-BEC supernatants, normoxia, decrease only reached significance with miR-18a
  levels of secreted VEGF: decreased
[2]; AVM-BEC transfected with constitutively active ALK2^Q207D, P>0.9999
  VEGF levels (ELISA): unable to decrease VEGF levels
[2]; AVM-BEC transfected with siCTL, P=0.0007 vs scramble
  levels of secreted VEGF: decreased
[2]; AVM-BEC transfected with siPAI-1
  effects of miR-18a in the decrease of secreted VEGF levels: lost
[2]; AVM-BEC, hypoxia 3% oxygen
  PAI-1 secretion: reduction of PAI-1 secretion caused by miR-18a was still observed
[3]; BEC transfected with ALK2, P>0.9999
  VEGF secretion (ELISA): No significant changes
[3]; [6]
  levels of secreted PAI-1: without affecting control BEC
  levels of secreted VEGF: without affecting control BEC
[3]; control BEC transfected with siCTL
  levels of secreted VEGF: without affecting control BEC
[4]
  BMP4-3′-UTR-Luc activity: significantly (P<0.001) decreased
[5]
  invasiveness: without affecting control BEC
